Laboratory results as given in patent US8252751B2, “Organic compounds” (Novartis AG, priority 2007, dated 2012).
“And” between values parts separate entries of the source, which are not always exact repeats. Equal values may be shown once. Read-outs that look alike come from different tables or passages of the source.

Columns and labels:
Assay type in all cases: biochemical
[1] = molecular target: T1, human FAP (Homo sapiens, UniProt Q12884); assay: FAP (fibroblast activation protein, alpha) IC50 assay, Z-Gly-Pro-AMC fluorescence intensity
T1 construct: human FAPa covering amino acid 27-760 excluding the cytoplasmic and transmebrane domains; made in house; host or cells: insect cells (baculovirus expression system)
T1 sequence (Q12884 27-760): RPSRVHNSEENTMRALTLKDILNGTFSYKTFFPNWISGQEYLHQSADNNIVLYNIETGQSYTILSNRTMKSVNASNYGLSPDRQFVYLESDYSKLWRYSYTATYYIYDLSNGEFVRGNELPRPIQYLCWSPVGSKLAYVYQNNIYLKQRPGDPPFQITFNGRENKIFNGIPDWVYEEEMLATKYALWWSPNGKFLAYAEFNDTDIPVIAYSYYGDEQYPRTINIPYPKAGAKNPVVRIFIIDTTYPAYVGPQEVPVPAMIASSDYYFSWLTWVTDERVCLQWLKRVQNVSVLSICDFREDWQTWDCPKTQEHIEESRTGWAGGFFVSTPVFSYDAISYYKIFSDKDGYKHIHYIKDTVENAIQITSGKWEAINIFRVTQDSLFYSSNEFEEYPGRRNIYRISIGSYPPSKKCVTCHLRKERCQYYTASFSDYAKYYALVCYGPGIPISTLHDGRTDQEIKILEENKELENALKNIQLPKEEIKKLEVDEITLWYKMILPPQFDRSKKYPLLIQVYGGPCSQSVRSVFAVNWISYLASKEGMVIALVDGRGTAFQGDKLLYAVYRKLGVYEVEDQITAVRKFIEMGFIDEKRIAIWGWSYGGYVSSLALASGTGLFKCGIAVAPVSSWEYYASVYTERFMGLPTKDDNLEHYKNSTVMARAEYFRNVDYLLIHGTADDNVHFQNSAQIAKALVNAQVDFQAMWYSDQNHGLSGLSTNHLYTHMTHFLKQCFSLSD
Source text: (§1) For fluorescence intensity (FI) measurements with AMC as dye, an Ultra Evolution reader (TECAN, Maennedorf, Switzerland) was used. The instrument was equipped with a combination of a 350 nm (20 nm bandwidth) and a 500 nm (25 nm bandwidth) bandpath filter for fluorescence excitation and emission acquisition, respectively. To increase the signal:background ratio, an appropriate dichroic mirror was employed. All filters and the dichroic mirror were purchased from TECAN.
(§2) The data from the independent assay runs was averaged and plotted using program of Origin 7.5SR6 (OriginLab Corporation, Northampton, Mass., USA). Origin's built-in non-linear regression routine was used to fit the averaged data to the ‘logistics’ function y=A2+(A1−A2)/(1+(x/IC50)^p) (Equation 1) where y is the %-inhibition at the inhibitor concentration, x. A1 is the lowest inhibition value, i.e. 0%, and A2 the maximum inhibition value, i.e. 100%. The exponent, p, is the Hill coefficient. B. Determination of IC50 Values
(§3) For the determination of IC50 values, the assays were performed at room temperature in 384-well plates. All final assay volumes were 30 μl. Test compounds were dissolved in 90% (v/v) DMSO/water and diluted in water (containing 0.05% (w/v) CHAPS) to 3-times the desired assay concentration. For each assay, 10 μl water/CHAPS (±test compound) were added per well, followed by 10 μl protease solution (diluted with assay buffer; for final assay concentration cf. § Assay conditions). After 1 hour of incubation at room temperature, the reaction was started by addition of 10 μl substrate solution (for final concentrations cf. § Assay conditions). […] The effect of the compound on the enzymatic activity was obtained from the linear progress curves and determined from two readings, the first one taken directly after the addition of substrate (t=0 min) and the second one after 1 hour (t=60 min). The IC50 value was calculated from the plot of percentage of inhibition vs. inhibitor concentration using non-linear regression analysis software (XLfit, Vers. 4.0; ID Business Solution Ltd., Guildford, Surrey, UK). […]

[2] = molecular target: T2, human DPP-9 (Homo sapiens, UniProt Q86TI2); assay: DPP-9 (dipeptidyl-peptidase 9) IC50 assay, Gly-Pro-AMC fluorescence intensity
T2 construct: human DPP-9 covering amino acid 1-863; made in house; host or cells: Pichia pastoris
Source text: as §1
as §2, with “Values […]” for “Values”
(§4) For the determination of IC50 values, the assays were performed at room temperature in 384-well plates. All final assay volumes were 30 μl. Test compounds were dissolved in 90% (v/v) DMSO/water and diluted in water (containing 0.05% (w/v) CHAPS) to 3-times the desired assay concentration. For each assay, 10 μl water/CHAPS (±test compound) were added per well, followed by 10 μl protease solution (diluted with assay buffer; for final assay concentration cf. § Assay conditions). After 1 hour of incubation at room temperature, the reaction was started by addition of 10 μl substrate solution (for final concentrations cf. § Assay conditions). The eleven final compound concentrations were either 0.9 nM, 3 nM, 9 nM, 30 nM, 90 nM, 300 nM, 900 nM, 3 μM, 9 μM, 30 μM and 90 μM or 3 nM, 10 nM, 30 nM, 100 nM, 300 nM, 1 μM, 3 μM, 10 μM, 30 μM, 100 μM and 300 μM. The effect of the compound on the enzymatic activity was obtained from the linear progress curves and determined from two readings, the first one taken directly after the addition of substrate (t=0 min) and the second one after 1 hour (t=60 min). The IC50 value was calculated from the plot of percentage of inhibition vs. inhibitor concentration using non-linear regression analysis software (XLfit, Vers. 4.0; ID Business Solution Ltd., Guildford, Surrey, UK).
5.—DPP-9 (dipeptidyl-peptidase 9) enzyme: human DPP-9 covering amino acid 1-863; expressed in and purified from Pichia pastoris substrate: Gly-Pro-AMC, purchased from Bachem (www.bachem.com), catalogue number I-1225 enzyme concentration: 1 nM substrate concentration: 10 μM assay buffer: 25 mM Tris, pH 7.4, 140 mM NaCl, 10 mM KCl, 0.05% (w/v) CHAPS

[3] = molecular target: T3, human DPP-8 (Homo sapiens, UniProt Q6V1X1); assay: DPP-8 (dipeptidyl-peptidase 8) IC50 assay, Gly-Pro-AMC fluorescence intensity
T3 construct: human DPP-8 covering amino acid 1-882; made in house; host or cells: insect cells (baculovirus expression system)
Source text: as §1
as §2, with “Values […]” for “Values”
as §4
(§5) 4.—DPP-8 (dipeptidyl-peptidase 8) enzyme: human DPP-8 covering amino acid 1-882; expressed in and purified from insect cells (baculovirus expression system) substrate: Gly-Pro-AMC, purchased from Bachem (www.bachem.com), catalogue number I-1225 enzyme concentration: 0.05 nM substrate concentration: 10 μM assay buffer: 25 mM Tris, pH 7.4, 140 mM NaCl, 10 mM KCl, 0.05% (w/v) CHAPS

[4] = molecular target: T4, endogenous human DPP-IV from plasma sample (Homo sapiens, UniProt P27487); assay: human plasma DPP-IV IC50 assay, (H-Ala-Pro)2-Rh110 fluorescence intensity; conditions: for IC50: 50% plasma
T4 construct: endogenous human DPP-IV from plasma sample, male donors; from tissue; host or cells: human blood plasma, male donors, diluted to 50% plasma content
Source text: FI measurements using a Rh110 dye were done with a Safire2 reader (TECAN, Maennedorf, Switzerland). The Safire2 is a monochomator-based instrument and wavelengths of 485 nm and 535 nm were taken for fluorescence excitation and emission acquisition, respectively. The bandwidths were set to 20 nm in both the excitation and the emission path.
as §2, with “Values […]” for “Values”
as §3

[5] = molecular target: T5, human PEP (Homo sapiens, UniProt P48147); assay: PEP (prolyl-endopeptidase) IC50 assay, Z-Gly-Pro-AMC fluorescence intensity
T5 construct: human PEP covering amino acid 1-710; made in house; host or cells: Pichia pastoris
T5 sequence (P48147 1-710): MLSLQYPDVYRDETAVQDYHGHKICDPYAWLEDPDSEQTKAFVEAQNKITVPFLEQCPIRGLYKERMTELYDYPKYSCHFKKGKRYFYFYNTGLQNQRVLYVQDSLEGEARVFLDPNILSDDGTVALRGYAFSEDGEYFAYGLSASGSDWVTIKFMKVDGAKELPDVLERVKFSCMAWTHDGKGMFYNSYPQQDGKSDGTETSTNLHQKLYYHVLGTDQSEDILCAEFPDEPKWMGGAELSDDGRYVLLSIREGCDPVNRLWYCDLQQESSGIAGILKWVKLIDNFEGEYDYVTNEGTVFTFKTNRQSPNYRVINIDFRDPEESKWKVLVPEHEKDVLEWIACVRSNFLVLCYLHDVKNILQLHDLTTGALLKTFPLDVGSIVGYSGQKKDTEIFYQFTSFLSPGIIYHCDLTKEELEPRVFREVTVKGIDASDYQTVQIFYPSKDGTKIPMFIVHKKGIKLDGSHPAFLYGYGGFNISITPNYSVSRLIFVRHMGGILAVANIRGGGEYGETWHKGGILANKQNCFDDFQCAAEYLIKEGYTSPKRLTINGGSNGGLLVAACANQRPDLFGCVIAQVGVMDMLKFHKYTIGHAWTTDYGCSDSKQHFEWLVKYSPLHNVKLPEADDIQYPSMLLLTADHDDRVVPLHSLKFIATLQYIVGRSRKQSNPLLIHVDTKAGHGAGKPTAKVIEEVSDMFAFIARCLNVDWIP
Source text: as §1
as §2, with “Values […]” for “Values”
as §3

[6] = molecular target: T6, human DPP-IV (Homo sapiens, UniProt P27487); assay: DPP-IV (dipeptidyl peptidase IV) IC50 assay, Gly-Pro-AMC fluorescence intensity
T6 construct: human DPP-IV covering amino acid 39-766; made in house; host or cells: insect cells (baculovirus expression system)
Source text: as §1
as §2, with “Values […]” for “Values”
as §4
as §5, with “2.—DPP-IV (dipeptidyl peptidase IV) enzyme:” for “4.—DPP-8 (dipeptidyl-peptidase 8) enzyme:”, “human DPP-IV” for “human DPP-8”, “acid 39-766;” for “acid 1-882;”, “concentration: 0.01” for “concentration: 0.05”

[7] = molecular target: T7, human DPP-2 (Homo sapiens, UniProt Q9UHL4); assay: DPP-2 (dipeptidyl peptidase 2) IC50 assay, Nle-Pro-AMC fluorescence intensity
T7 construct: human DPP-2 covering amino acid 30-492; made in house; host or cells: insect cells (baculovirus expression system)
Source text: as §1
as §2, with “A1 is the lowest inhibition value, i.e. 0%, and A2 the maximum inhibition value, i.e. 100%. The exponent, p, is the Hill coefficient. B. Determination of IC50 Values” left out
For the determination of IC50 values, the assays were performed at room temperature in 384-well plates. […] The effect of the compound on the enzymatic activity was obtained from the linear progress curves and determined from two readings, the first one taken directly after the addition of substrate (t=0 min) and the second one after 1 hour (t=60 min). The IC50 value was calculated from the plot of percentage of inhibition vs. inhibitor concentration using non-linear regression analysis software (XLfit, Vers. 4.0; ID Business Solution Ltd., Guildford, Surrey, UK). […]

[8] = individual experiments 1-4, read-out: IC50 value
[9] = mean of 4 experiments, read-out: Mean IC50 value ± SD

T3 sequence (Q6V1X1 17-898): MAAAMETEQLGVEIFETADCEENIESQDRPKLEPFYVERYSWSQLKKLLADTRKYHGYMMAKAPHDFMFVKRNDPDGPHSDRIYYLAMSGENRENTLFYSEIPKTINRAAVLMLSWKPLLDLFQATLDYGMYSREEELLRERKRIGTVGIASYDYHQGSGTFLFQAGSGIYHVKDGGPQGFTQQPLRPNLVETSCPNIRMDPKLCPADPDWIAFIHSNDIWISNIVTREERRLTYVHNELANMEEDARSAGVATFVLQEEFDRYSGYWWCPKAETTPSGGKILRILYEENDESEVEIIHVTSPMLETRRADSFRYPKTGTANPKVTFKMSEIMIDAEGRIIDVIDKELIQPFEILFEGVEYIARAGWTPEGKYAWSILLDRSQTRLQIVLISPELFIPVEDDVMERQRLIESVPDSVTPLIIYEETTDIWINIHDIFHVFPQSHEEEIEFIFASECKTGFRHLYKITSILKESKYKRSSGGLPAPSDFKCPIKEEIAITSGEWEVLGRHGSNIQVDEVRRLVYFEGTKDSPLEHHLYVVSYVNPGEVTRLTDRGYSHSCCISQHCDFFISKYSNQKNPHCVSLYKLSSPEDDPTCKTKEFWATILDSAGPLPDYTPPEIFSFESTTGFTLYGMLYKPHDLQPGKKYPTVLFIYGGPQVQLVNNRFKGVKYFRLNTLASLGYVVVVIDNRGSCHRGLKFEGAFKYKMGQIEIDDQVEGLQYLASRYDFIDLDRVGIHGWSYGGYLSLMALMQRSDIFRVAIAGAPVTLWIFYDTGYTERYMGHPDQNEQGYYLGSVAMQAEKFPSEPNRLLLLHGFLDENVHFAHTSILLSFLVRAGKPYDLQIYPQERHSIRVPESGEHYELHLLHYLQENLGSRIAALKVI
T6 sequence (P27487 39-766): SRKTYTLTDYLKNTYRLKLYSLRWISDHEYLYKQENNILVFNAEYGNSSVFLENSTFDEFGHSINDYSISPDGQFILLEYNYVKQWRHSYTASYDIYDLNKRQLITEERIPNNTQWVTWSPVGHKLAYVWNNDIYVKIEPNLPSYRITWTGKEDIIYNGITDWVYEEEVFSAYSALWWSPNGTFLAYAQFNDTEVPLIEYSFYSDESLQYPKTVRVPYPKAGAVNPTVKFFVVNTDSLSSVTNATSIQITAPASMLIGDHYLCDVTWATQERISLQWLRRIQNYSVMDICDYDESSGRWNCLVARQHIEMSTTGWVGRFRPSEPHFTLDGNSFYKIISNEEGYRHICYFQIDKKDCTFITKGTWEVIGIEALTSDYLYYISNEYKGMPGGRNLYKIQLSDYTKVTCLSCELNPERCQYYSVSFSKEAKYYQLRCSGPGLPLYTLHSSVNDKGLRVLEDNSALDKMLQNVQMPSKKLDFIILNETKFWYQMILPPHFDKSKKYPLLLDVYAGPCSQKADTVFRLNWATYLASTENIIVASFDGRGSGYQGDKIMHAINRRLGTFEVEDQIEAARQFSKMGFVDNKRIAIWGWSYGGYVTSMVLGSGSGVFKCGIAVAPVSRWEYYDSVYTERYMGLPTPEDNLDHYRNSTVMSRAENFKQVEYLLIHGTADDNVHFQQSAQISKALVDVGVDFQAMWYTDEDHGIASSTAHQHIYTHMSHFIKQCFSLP
T4 sequence (P27487 39-766 limits assumed): as the sequence (P27487 39-766) above
T2 sequence (Q86TI2 whole entry): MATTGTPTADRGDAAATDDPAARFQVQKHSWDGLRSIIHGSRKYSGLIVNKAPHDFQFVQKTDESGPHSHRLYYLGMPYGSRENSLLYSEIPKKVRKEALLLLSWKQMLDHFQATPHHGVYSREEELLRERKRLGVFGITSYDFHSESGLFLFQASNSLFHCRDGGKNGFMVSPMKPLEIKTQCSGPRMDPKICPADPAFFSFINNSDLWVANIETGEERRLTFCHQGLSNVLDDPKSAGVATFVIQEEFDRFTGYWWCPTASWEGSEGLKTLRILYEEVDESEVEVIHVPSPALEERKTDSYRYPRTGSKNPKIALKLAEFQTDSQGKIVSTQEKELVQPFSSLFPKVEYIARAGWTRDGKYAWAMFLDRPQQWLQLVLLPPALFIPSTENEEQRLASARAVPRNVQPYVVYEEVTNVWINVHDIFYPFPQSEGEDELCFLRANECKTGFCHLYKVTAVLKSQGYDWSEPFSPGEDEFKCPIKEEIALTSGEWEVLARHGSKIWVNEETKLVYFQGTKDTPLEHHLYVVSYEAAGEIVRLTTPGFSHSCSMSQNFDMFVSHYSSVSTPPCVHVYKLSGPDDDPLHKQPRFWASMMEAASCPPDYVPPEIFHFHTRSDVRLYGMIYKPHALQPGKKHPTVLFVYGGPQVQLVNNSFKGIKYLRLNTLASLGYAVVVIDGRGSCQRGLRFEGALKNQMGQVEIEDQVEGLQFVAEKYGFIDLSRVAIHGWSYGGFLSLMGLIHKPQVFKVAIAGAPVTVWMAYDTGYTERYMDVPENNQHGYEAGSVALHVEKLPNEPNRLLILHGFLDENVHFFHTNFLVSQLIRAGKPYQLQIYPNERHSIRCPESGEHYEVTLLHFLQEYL

Hill coefficient ([1]; individual experiments 1-4): 1.3 and 0.8 (2×) and 0.7
IC50 [1, 8]: 43 µM and 16 µM and 19 µM
IC50 [1, 9]: 24 ± 13 µM
potency at inhibiting DPP-9 enzyme ([2]; compared with vildagliptin): less potent
Hill coefficient ([2]; human DPP-9, individual experiments 1-4): 1.0 (2×) and 0.9 (2×)
IC50 ([2]; human DPP-9, individual experiments 1-4, read-out: IC50 value): 0.7 µM and 0.4 µM and 0.6 µM
IC50 ([2]; human DPP-9, mean of 4 experiments, read-out: Mean IC50 value ± SD): 0.5 ± 0.2 µM
potency at inhibiting DPP-8 enzyme ([3]; compared with vildagliptin): less potent
Hill coefficient ([3]; human DPP-8, individual experiments 1-4): 1.2 (3×) and 1.3
IC50 ([3]; human DPP-8, individual experiments 1-4, read-out: IC50 value): 8.3 µM and 8 µM and 8.1 µM and 7.6 µM
IC50 ([3]; human DPP-8, mean of 4 experiments, read-out: Mean IC50 value ± SD): 8 ± 0.3 µM
IC50 [4, 8]: 0.003 µM and 0.004 µM
IC50 [4, 9]: 0.004 ± 0.001 µM
Hill coefficient ([4]; individual experiments 1-4): 1.4 (2×) and 1.2 (2×)
Hill coefficient ([5]; individual experiments 1-4): 0.7 and 1.2 and 0.8 and 0.6
IC50 [5, 8]: 52 µM and 15 µM and 18 µM and 14 µM
IC50 [5, 9]: 25 ± 18 µM
potency at inhibiting the DPP-4 enzyme ([6]; compared with vildagliptin): equally potent to vildagliptin
Hill coefficient ([6]; human DPP-IV, individual experiments 1-4): 0.7 and 0.9 and 1.3 and 1.1
IC50 ([6]; human DPP-IV, individual experiments 1-4, read-out: IC50 value): 0.004 µM and 0.006 µM and 0.007 µM and 0.005 µM
IC50 ([6]; human DPP-IV, mean of 4 experiments, read-out: Mean IC50 value ± SD): 0.006 ± 0.001 µM
IC50 [7, 8]: > 300 µM
IC50 [7, 9]: > 90 µM
Structure (SMILES): N#C[C@@H]1CCCN1C(=O)CNC12CC3CC(C1)CC(O[C@@H]1O[C@H](C(=O)O)[C@@H](O)[C@H](O)[C@H]1O)(C3)C2 [NVP-BQS867-NX-2]
